Target: T1, kGDH (Homo sapiens, UniProt Q02218)
T1 construct: Log-phase growing cells were trypsinized and resuspended in TDM; endogenous in cells
T1 sequence (Q02218 41-1023): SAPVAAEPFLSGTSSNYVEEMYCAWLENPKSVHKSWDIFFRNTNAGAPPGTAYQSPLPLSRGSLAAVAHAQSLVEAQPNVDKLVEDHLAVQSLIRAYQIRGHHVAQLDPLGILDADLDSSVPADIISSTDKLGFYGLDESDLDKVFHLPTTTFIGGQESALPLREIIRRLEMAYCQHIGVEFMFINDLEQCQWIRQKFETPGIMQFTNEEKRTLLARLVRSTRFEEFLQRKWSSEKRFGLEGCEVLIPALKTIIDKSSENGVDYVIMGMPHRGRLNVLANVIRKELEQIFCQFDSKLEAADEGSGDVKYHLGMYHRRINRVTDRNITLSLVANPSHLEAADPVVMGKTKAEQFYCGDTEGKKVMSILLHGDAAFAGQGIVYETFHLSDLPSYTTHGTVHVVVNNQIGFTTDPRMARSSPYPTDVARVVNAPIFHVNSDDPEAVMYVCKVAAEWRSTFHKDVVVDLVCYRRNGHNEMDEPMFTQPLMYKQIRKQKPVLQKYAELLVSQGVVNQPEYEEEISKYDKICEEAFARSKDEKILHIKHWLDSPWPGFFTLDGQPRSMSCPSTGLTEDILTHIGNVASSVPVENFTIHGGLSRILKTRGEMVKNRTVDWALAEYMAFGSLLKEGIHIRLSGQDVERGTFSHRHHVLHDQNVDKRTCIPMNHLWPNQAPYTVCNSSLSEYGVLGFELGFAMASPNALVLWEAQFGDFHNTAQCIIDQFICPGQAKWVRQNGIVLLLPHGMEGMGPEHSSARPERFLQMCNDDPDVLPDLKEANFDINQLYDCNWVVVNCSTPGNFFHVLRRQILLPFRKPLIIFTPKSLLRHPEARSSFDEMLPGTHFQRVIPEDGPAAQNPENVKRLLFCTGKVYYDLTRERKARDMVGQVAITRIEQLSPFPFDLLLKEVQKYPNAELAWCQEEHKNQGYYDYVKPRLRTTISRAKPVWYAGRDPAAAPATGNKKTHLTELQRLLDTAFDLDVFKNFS
T1 sequence (P36957 68-453 partner): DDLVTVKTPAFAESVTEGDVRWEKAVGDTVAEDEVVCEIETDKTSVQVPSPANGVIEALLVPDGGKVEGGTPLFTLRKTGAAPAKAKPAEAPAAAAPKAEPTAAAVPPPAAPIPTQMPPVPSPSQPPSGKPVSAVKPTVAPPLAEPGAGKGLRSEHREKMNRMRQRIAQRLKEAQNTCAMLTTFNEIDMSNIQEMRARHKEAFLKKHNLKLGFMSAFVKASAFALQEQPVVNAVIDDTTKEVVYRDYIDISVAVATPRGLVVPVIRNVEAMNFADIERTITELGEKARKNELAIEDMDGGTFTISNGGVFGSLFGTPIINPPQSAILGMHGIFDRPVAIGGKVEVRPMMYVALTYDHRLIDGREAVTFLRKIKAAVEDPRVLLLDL
T1 sequence (P09622 36-509 partner): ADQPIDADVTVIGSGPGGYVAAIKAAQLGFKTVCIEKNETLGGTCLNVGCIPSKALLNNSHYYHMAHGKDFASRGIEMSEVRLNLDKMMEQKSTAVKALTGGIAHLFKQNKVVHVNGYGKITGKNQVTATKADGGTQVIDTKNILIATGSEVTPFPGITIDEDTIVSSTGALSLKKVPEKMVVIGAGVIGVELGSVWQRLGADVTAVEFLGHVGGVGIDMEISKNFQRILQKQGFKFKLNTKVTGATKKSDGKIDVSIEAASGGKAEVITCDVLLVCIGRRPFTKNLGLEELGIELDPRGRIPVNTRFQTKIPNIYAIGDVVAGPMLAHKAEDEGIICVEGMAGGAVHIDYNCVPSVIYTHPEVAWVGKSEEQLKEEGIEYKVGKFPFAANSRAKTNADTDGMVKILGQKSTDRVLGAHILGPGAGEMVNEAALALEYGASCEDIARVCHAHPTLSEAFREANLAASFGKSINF
Assay: Cell-based kGDH inhibition in thiamine-depleted media, 96-well format
Details: treated cells, 48 hours treatment
Procedure: We determined the IC50 of compounds that inhibit the activity of the TPP utilizing enzymes TK, kGDH and PDH in a convenient 96-well format using an optimized version of the method described in the previous Examples.
The high thiamine levels in conventional cell culture media (e.g., DMEM (12 μM), RPMI (3 μM)) masks the inhibitory effect of such inhibitors. To measure the IC50 of such inhibitors, thus, a thiamine depleted DMEM, containing all the ingredients of normal DMEM except for thiamine (HyClone, custom order), was used. Thiamine-depleted media (TDM) is made up with thiamine-depleted DMEM, 10% FBS, which contains negligible amount of thiamine (estimated to be ˜3-5% nM) and 1% Penicillin-streptomycin.
Log-phase growing cells were trypsinized and resuspended in TDM. Optimization of the initial cell counts is recommended for each cell line to ensure that enzyme activity can be observed at the beginning and that healthy growth can continue. For cell lines that have a doubling time of approximately 24 hours and cellular transketolase levels high enough to be reliably detected with five thousand (5K) cells such as HCT116 and HT1080, 8K cells are recommended.
Media containing 8K cells (95 μl) were used to seed individual wells in a 96-well clear-bottom cell cultured treated sterile plate. […] Enzymatic inhibition was expressed as percent of control wells that were not treated with compounds. […]

Cc1ccc(C[n+]2csc(CCO)c2C)c(N)n1 [N3PT, 3-[(2-amino-6-methyl-3-pyridinyl)methyl]-5-(2-hydroxyethyl)-4-methyl thiazolium] was tested. Which IC50 did it give?
Its IC50 is 86 nM.

— US20070292888A1, “Methods for Measuring Enzyme Activities in Cells, Blood, Tumors and Tissues” (GEN-PATH PHARMACEUTICALS, INC., priority 2004, published 2007)
